Test results taken from US9120749B2, “Quinoline derivatives and MELK inhibitors containing the same” (ONCOTHERAPY SCIENCE, INC., priority 2010, dated 2015).
Structures can show the parent of a compound that is named as a salt. Where two headings read alike, the source gives them in different places. Each block holds one molecule with its values, some of them ahead of it.

Legend:
MELK = MELK (Homo sapiens, UniProt Q14680); experiment: Kinase assay: MELK activity, phosphorylation of FITC-labeled histone H3 peptide measured by IMAP fluorescence polarization; format: biochemical; details: read-out: IC50 (μM) (kinase assay)
Procedure, shortened: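 Fluorescence polarization was measured 0.5 h (room temperature) after quenching with threefold volume of progressive binding solution. Test compounds from 12.5 mM DMSO stocks were assayed at 1% DMSO.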

T47D cells = experiment: Cell-based assay: anti-proliferative activity, Cell Counting Kit-8, 72 hours (T47D)
Procedure, shortened: (§1)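 Proliferation read with Cell Counting Kit-8 after 72 hours of inhibitor treatment, from seeding of 2,000–3,000 cells/well. Lines: T47D, A549, BT-549; HT-1197, lacking MELK by western blot, served as negative control. IC50 derived.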

A549 cells = experiment: Cell-based assay: anti-proliferative activity, Cell Counting Kit-8, 72 hours (A549); details: 72 hours
Procedure, shortened: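 A549 cells were seeded in 96-well plates and exposed to candidate inhibitors for 72 hours. Cell growth was then measured with Cell Counting Kit-8, and IC50 values were calculated from the resulting growth data.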

HT-1197 cells = experiment: Cell-based assay: anti-proliferative activity, Cell Counting Kit-8, 72 hours (HT-1197, negative control without MELK expression); details: 72 hours
Procedure, shortened: as §1

22Rv1 cells [1] = experiment: Cell-based assay: anti-proliferative activity, Cell Counting Kit-8, 72 hours (22Rv1); details: Homo sapiens
DU4475 cells [2] = experiment: Cell-based assay: anti-proliferative activity, Cell Counting Kit-8, 72 hours (DU4475)
22Rv1 cells [3] = experiment: Cell-based assay: anti-proliferative activity, Cell Counting Kit-8, 72 hours (22Rv1); details: Homo sapiens; remark: listed apart in the source
DU4475 cells [4] = experiment: Cell-based assay: anti-proliferative activity, Cell Counting Kit-8, 72 hours (DU4475); details: hydrochloride
22Rv1 = experiment: Cell-based assay: anti-proliferative activity, Cell Counting Kit-8, 72 hours (22Rv1); details: Homo sapiens; 22Rv1 cells
Experimental: Active candidate inhibitors against MELK were evaluated for their target-specific cytotoxicity using T47D, A549, BT-549, and HT-1197 cells was used for negative control. 100 micro-L of cell suspension was seeded onto 96-well microtiter plate (ViewPlate-96FTC, PerkinElmer). The initial cell concentration of T47D, A549, BT-549, and HT-1197 were 3,000 cells/well, 2,000 cells/well and 2,500 cells/well, respectively. Cellular growth was determined using Cell Counting Kit-8 (DOJINDO) at 72 hours after the exposure of the candidate inhibitors. […] Accurate IC50 values were calculated as described previously.

DU4475 = experiment: Cell-based assay: anti-proliferative activity, Cell Counting Kit-8, 72 hours (DU4475)
[5] = Homo sapiens, HT1197, 72 h, HT1197 cells (negative control)
[6] = HT1197 cells (negative control), hydrochloride
[7] = HT1197 cells (negative control, no MELK expression), hydrochloride
[8] = 50 micro-M ATP, FITC-labeled histone H3 peptide substrate, IMAP fluorescence polarization
[9] = Homo sapiens, HT1197, 72 h, HT1197 cells (negative control, no MELK expression)
[10] = Homo sapiens, DU-4475, DU4475 cells
[11] = HT1197 cells (negative control, no MELK expression)

Chain of MELK (Q14680 whole entry, looked up): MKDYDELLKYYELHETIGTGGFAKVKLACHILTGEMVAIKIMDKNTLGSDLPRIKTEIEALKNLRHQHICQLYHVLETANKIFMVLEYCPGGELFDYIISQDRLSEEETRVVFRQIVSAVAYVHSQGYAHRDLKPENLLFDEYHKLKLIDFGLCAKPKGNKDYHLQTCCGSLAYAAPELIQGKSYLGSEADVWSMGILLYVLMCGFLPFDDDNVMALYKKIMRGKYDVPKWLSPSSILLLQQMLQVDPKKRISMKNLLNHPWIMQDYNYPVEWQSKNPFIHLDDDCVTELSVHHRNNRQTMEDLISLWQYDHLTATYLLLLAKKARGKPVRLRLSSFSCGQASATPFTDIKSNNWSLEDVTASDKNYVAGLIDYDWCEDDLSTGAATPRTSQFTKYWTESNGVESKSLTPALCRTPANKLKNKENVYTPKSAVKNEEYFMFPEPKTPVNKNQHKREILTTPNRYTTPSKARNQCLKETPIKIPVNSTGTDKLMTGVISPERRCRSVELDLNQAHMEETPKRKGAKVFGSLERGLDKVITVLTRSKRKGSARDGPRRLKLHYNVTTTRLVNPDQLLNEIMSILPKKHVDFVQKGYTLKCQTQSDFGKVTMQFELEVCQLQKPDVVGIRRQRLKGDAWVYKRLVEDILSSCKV

Compound: CN[C@H]1CC[C@H](Nc2c(C(=O)C3CC3)cnc3ccc(-c4cc(Cl)c(O)c(OC)c4)cc23)CC1 [Example 517, {6-(3-Chloro-4-hydroxy-5-methoxyphenyl)-4-[trans-4-(methylamino)cyclohexylamino]quinolin-3-yl}(cyclopropyl)methanone]
IC50 (MELK): 0.0014 µM | IC50 (T47D cells; Homo sapiens, T47D, 72 h): 0.067 µM | IC50 (A549 cells; Homo sapiens, A549, 72 h): 0.072 µM | IC50 (HT-1197 cells; [5]): 0.38 µM | IC50 (22Rv1 cells [1]): 0.18 µM | IC50 (DU4475 cells [2]; Homo sapiens, DU-4475, 72 h): 0.048 µM

IC50 (T47D cells; 72 hours, hydrochloride): 0.32 µM | IC50 (A549 cells; hydrochloride): 0.28 µM | IC50 (22Rv1 cells [1]): 0.51 µM
Compound: CN1CCN(C[C@H]2CC[C@H](Nc3c(C(=O)C4CC4)cnc4ccc(-c5cc(Cl)c(O)c(Cl)c5)cc34)CC2)CC1 [Example 619, cyclopropyl(6-(3,5-dichloro-4-hydroxyphenyl)-4-(1R,4R)-4-((4-methylpiperazin-1-yl)methyl)cyclohexylamino)quinolin-3-yl)methanone hydrochloride]
IC50 (HT-1197 cells; [6]): 2.6 µM | IC50 (DU4475 cells [2]; hydrochloride): 0.15 µM

IC50 (T47D cells; 72 hours, hydrochloride): 0.099 µM | IC50 (22Rv1 cells [3]): 0.17 µM
Compound: CC(=O)c1cnc2ccc(-c3cc(Cl)c(O)c(Cl)c3)cc2c1N[C@H]1CC[C@H](CCN(C)C)CC1 [Example 740, 1-(6-(3,5-dichloro-4-hydroxyphenyl)-4-(trans-4-(2-(dimethylamino)ethyl)cyclohexylamino)quinolin-3-yl)ethanone hydrochloride]
IC50 (HT-1197 cells; [7]): 3.5 µM | IC50 (DU4475 cells [4]): 0.087 µM

Compound: CC(C)(N)c1ccc(Nc2c(C(=O)C3CC3)cnc3ccc(-c4cc(F)c(O)c(Cl)c4)cc23)cc1 [Example 604, {4-[4-(2-Aminopropan-2-yl)phenylamino]-6-(3-chloro-5-fluoro-4-hydroxyphenyl)quinolin-3-yl}(cyclopropyl)methanone]
IC50 (MELK): 0.0028 µM | IC50 (T47D cells; Homo sapiens, T47D, 72 h): 0.094 µM | IC50 (A549 cells; Homo sapiens, A549, 72 h): 0.097 µM | IC50 (HT-1197 cells; [5]): 0.79 µM | IC50 (22Rv1 cells [1]): 0.087 µM | IC50 (DU4475 cells [2]; Homo sapiens, DU-4475, 72 h): 0.039 µM

Compound: O=C(c1cnc2ccc(-c3cc(Cl)c(O)c(Cl)c3)cc2c1N[C@H]1CC[C@H](CN2CCCC2)CC1)C1CC1 [Example 585, cyclopropyl(6-(3,5-dichloro-4-hydroxyphenyl)-4-(1R,4R)-4-(pyrrolidin-1-ylmethyl)cyclohexylamino)quinolin-3-yl)methanone hydrochloride]
IC50 (T47D cells; 72 hours, hydrochloride): 0.12 µM | IC50 (A549 cells; hydrochloride): 0.073 µM | IC50 (HT-1197 cells; [6]): 0.78 µM | IC50 (22Rv1 cells [1]): 0.1 µM | IC50 (DU4475 cells [2]; hydrochloride): 0.043 µM

Compound: CC(=O)c1cnc2ccc(-c3cc(Cl)c(O)c(Cl)c3)cc2c1Nc1ccc(CN2CCN(C)CC2)cc1 [Example 655, 1-(6-(3,5-dichloro-4-hydroxyphenyl)-4-(4-((4-methylpiperazin-1-yl)methyl)phenylamino)quinolin-3-yl)ethanone hydrochloride]
IC50 (MELK; hydrochloride): 0.0029 µM | IC50 (T47D cells; 72 hours, hydrochloride): 0.072 µM | IC50 (A549 cells; hydrochloride): 0.23 µM | IC50 (HT-1197 cells; [7]): 7.8 µM | IC50 (22Rv1 cells [3]): 0.18 µM | IC50 (DU4475 cells [4]): 0.097 µM

Compound: CN[C@H]1CC[C@H](Nc2c(C(C)=O)cnc3ccc(-c4cc(Cl)c(O)c(OC)c4)cc23)CC1 [Example 543, 1-(6-(3-chloro-4-hydroxy-5-methoxyphenyl)-4-(1R,4R)-4-(methylamino)cyclohexylamino)quinolin-3-yl)ethanone dihydrochloride]
IC50 (MELK; dihydrochloride): 0.0018 µM | IC50 (T47D cells; 72 hours, dihydrochloride): 0.047 µM | IC50 (A549 cells; dihydrochloride): 0.076 µM | IC50 (HT-1197 cells; HT1197 cells (negative control), dihydrochloride): 1.1 µM | IC50 (22Rv1 cells [1]): 0.14 µM | IC50 (DU4475 cells [2]; dihydrochloride): 0.051 µM

Compound: O=C(c1cnc2ccc(-c3cc(F)c(O)c(Cl)c3)cc2c1Nc1ccc(N2CCNCC2)nc1)C1CC1 [Example 425, (6-(3-chloro-5-fluoro-4-hydroxyphenyl)-4-(6-(piperazin-1-yl)pyridin-3-ylamino)quinolin-3-yl)(cyclopropyl)methanone]
IC50 (MELK; [8]): 0.0027 µM | IC50 (T47D cells; Homo sapiens, T47D, 72 h): 0.042 µM | IC50 (A549 cells; Homo sapiens, A549, 72 h): 0.16 µM | IC50 (HT-1197 cells; [9]): 1.4 µM | IC50 (22Rv1): 0.082 µM | IC50 (DU4475; [10]): 0.044 µM

Compound: O=C(c1cnc2ccc(-c3cc(F)c(O)c(Cl)c3)cc2c1N[C@H]1CC[C@H](CN2CCCC2)CC1)C1CC1 [Example 588, (6-(3-chloro-5-fluoro-4-hydroxyphenyl)-4-(1R,4R)-4-(pyrrolidin-1-ylmethyl)cyclohexylamino)quinolin-3-yl)(cyclopropyl)methanone hydrochloride]
IC50 (MELK; hydrochloride): 0.0037 µM | IC50 (T47D cells; 72 hours, hydrochloride): 0.091 µM | IC50 (A549 cells; hydrochloride): 0.096 µM | IC50 (HT-1197 cells; [6]): 0.46 µM | IC50 (22Rv1 cells [1]): 0.16 µM | IC50 (DU4475 cells [2]; hydrochloride): 0.063 µM

IC50 (T47D cells; 72 hours, hydrochloride): 0.26 µM | IC50 (A549 cells; hydrochloride): 0.13 µM | IC50 (22Rv1 cells [3]): 0.23 µM
Compound: CN(C)C1CCN(Cc2ccc(Nc3c(C(=O)C4CC4)cnc4ccc(-c5cc(Cl)c(O)c(Cl)c5)cc34)cc2)C1 (stereo not drawn) [Example 695, cyclopropyl(6-(3,5-dichloro-4-hydroxyphenyl)-4-(4-((3-(dimethylamino)pyrrolidin-1-yl)methyl)phenylamino)quinolin-3-yl)methanone hydrochloride]
IC50 (HT-1197 cells; [9]): 5.8 µM | IC50 (DU4475 cells [4]): 0.1 µM

Compound: CN(C)CCc1ccc(Nc2c(C(=O)C3CC3)cnc3ccc(-c4cc(Cl)c(O)c(Cl)c4)cc23)cc1 [Example 614, cyclopropyl(6-(3,5-dichloro-4-hydroxyphenyl)-4-(4-(2-(dimethylamino)ethyl)phenylamino)quinolin-3-yl)methanone hydrochloride]
IC50 (MELK; hydrochloride): 0.0016 µM | IC50 (T47D cells; 72 hours, hydrochloride): 0.12 µM | IC50 (HT-1197 cells; [6]): 1.6 µM | IC50 (22Rv1 cells [1]): 0.12 µM | IC50 (DU4475 cells [2]; hydrochloride): 0.024 µM

Compound: CC(=O)c1cnc2ccc(-c3cc(F)c(O)c(Cl)c3)cc2c1Nc1ccc(N2CCN(C)CC2)nc1 [Example 488, 1-(6-(3-chloro-5-fluoro-4-hydroxyphenyl)-4-(6-(4-methylpiperazin-1-yl)pyridin-3-ylamino)quinolin-3-yl)ethanone]
IC50 (MELK): 0.0041 µM | IC50 (T47D cells; 72 hours): 0.084 µM | IC50 (A549 cells): 0.2 µM | IC50 (HT-1197 cells; [11]): 2.1 µM | IC50 (22Rv1): 0.38 µM | IC50 (DU4475; DU4475 cells): 0.14 µM

Compound: CC(C)(N)c1ccc(Nc2c(C(=O)C3CC3)cnc3ccc(-c4cc(Cl)c(O)c(Cl)c4)cc23)cc1 [Example 602, {4-[4-(2-Aminopropan-2-yl)phenylamino]-6-(3,5-dichloro-4-hydroxyphenyl)quinolin-3-yl}(cyclopropyl)methanone]
IC50 (MELK): 0.0011 µM | IC50 (T47D cells; 72 hours): 0.13 µM | IC50 (A549 cells): 0.074 µM | IC50 (HT-1197 cells; HT1197 cells (negative control)): 0.73 µM | IC50 (22Rv1 cells [1]): 0.082 µM | IC50 (DU4475 cells [2]): 0.038 µM

Compound: CC(=O)c1cnc2ccc(-c3cc(Cl)c(O)c(Cl)c3)cc2c1Nc1ccc(CN2CCCC2)cc1 [Example 416, 1-(6-(3,5-dichloro-4-hydroxyphenyl)-4-(4-(pyrrolidin-1-ylmethyl)phenylamino)quinolin-3-yl)ethanone hydrobromide]
IC50 (MELK; 50 micro-M ATP, FITC-labeled histone H3 peptide substrate, IMAP fluorescence polarization, hydrobromide): 0.0032 µM | IC50 (T47D cells; 72 hours, hydrobromide): 0.066 µM | IC50 (A549 cells; hydrobromide): 0.11 µM | IC50 (HT-1197 cells; HT1197 cells (negative control, no MELK expression), hydrobromide): 6.1 µM | IC50 (22Rv1): 0.19 µM | IC50 (DU4475; DU4475 cells, hydrobromide): 0.053 µM

Compound: CN(C)C[C@H]1CC[C@H](Nc2c(S(C)(=O)=O)cnc3ccc(-c4cc(Cl)c(O)c(Cl)c4)cc23)CC1 [Example 421]
IC50 (MELK; [8]): 0.0017 µM | IC50 (T47D cells; 72 hours): 0.47 µM | IC50 (A549 cells): 0.68 µM | IC50 (HT-1197 cells; [11]): 2.1 µM | IC50 (22Rv1): 0.64 µM | IC50 (DU4475; DU4475 cells): 0.086 µM

Compound: O=C(c1cnc2ccc(-c3cc(F)c(O)c(Cl)c3)cc2c1Nc1ccc(CN2CCCC2)cc1)C1CC1 [Example 396, {6-(3-chloro-5-fluoro-4-hydroxyphenyl)-4-[4-(pyrrolidin-1-ylmethyl)phenylamino]quinolin-3-yl}(cyclopropyl)methanone]
IC50 (MELK; [8]): 0.0088 µM | IC50 (T47D cells; Homo sapiens, T47D, 72 h): 0.21 µM | IC50 (A549 cells; Homo sapiens, A549, 72 h): 0.087 µM | IC50 (HT-1197 cells; [9]): 1.6 µM | IC50 (22Rv1): 0.38 µM | IC50 (DU4475; [10]): 0.084 µM
